T1: TCPTPCAT (residues 1-288) (human, UniProt P17706-2 1-288)
T1 construct: T cell protein tyrosine phosphatase (TCPTP, PTPN2), human, TC45 isoform, catalytic domain residues 1-288, cloned into pMCSG7; used for cross-linking in trans; source: E. coli BL21 (DE3) RIL, purified (His-trap, TEV cleavage, subtraction, SEC); not shown: His6, N-terminal, cleaved
T1 sequence (looked up): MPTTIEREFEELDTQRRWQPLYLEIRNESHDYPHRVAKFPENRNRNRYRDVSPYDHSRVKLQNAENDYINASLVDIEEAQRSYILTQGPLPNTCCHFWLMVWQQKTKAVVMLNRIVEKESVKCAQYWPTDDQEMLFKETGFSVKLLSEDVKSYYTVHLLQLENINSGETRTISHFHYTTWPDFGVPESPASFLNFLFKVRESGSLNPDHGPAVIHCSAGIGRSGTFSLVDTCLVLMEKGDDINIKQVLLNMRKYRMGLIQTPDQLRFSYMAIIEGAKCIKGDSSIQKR

B1: TCPTP_(Tail) (residues 289-387) (domain or fragment, human, UniProt P17706-2 289-387, looked up)
chain: WKELSKEDLSPAFDHSPNKIMTEKYNGNRIGLEEEKLTGDRCTGLSSKMQDTMEENSESALRKRIREDRKATTAQKVQQMKQRLNENERKRKRPRLTDT
notes: T cell protein tyrosine phosphatase (TCPTP, PTPN2), human, TC45 isoform, C-terminal tail residues 289-387, cloned into pMCSG7; used for cross-linking in trans; source: E. coli BL21 (DE3) RIL, purified (His-trap, TEV cleavage, subtraction, heat step 80 °C 10 min, SEC); not shown: His6, N-terminal, cleaved

Columns and labels:
[1] = test system: TCPTP; conditions: via the cytoplasmic tail of ITGA1; cited from earlier work
[2] = target: T1, TCPTPCAT (residues 1-288); test: cross-linking; in trans: TCPTPCAT (1-288) 0.75 μM with TCPTP_Tail (289-387) 75 or 150 μM (1:100 and 1:200), BS3 or DSSO 0 to 1000 μM, 25 mM Hepes pH 7.4, 50 mM NaCl, room temperature 1 h; band cut from SDS-PAGE, LC-MS or LC-MSn; conditions: both partners purified

Molecule	activation of full-length TCPTP [1]	binding result [2]
integrin α1: collagen-binding integrin α1 (ITGA1)	activate full-length TCPTP	–
B1	–	binds

Source: article PMC8748766, “The catalytic activity of TCPTP is auto-regulated by its intrinsically disordered tail and activated by Integrin alpha-1” (Nature Communications, 2022)
